Consider 24 compounds from patent publication US7968556B2, “Heteroaryl compounds, compositions thereof, and methods of treatment therewith” (Signal Pharmaceuticals, LLC, priority 2006, dated 2011).

SMILES strings stand for the structures.

In the case of `CC(C)c1ccccc1-n1c(=O)[nH]c2c(C(N)=O)nc(-c3ccc4[nH]ccc4c3)nc21` [Compound 139, 2-(1H-Indol-5-yl)-9-(2-isopropylphenyl)-8-oxo-8,9-dihydro-7H-purine-6-carboxamide], the melting point was 310 °C (dec.).

Take `COc1ccc(-n2c(=O)[nH]c3c(C(N)=O)nc(-c4cccc(O)c4)nc32)c(F)c1` [Compound 155, 9-(2-Fluoro-4-methoxyphenyl)-2-(3-hydroxyphenyl)-8-oxo-8,9-dihydro-7H-purine-6-carboxamide]: the melting point was greater than 260 °C.

As to `CC(C)c1ccccc1-n1c(=O)[nH]c2c(C(N)=O)nc(-c3cnc4nc[nH]c4c3)nc21` [Compound 135, 2-(1H-Imidazo[4,5-b]pyridin-6-yl)-9-(2-isopropylphenyl)-8-oxo-8,9-dihydro-7H-purine-6-carboxamide], the melting point was 320 °C (dec.).

The compound `COc1ccccc1-n1c(=O)[nH]c2c(C(N)=O)nc(NC[C@H]3CCCN3)nc21` [Compound 113, (R)-9-(2-Methoxyphenyl)-8-oxo-2-(pyrrolidin-2-ylmethylamino)-8,9-dihydro-7H-purine-6-carboxamide] yielded a melting point of 155 to 157 °C.

For the compound `NC(=O)c1nc(-c2ccc3nc[nH]c3c2)nc2c1[nH]c(=O)n2C1CCCCC1` [Compound 156, 2-(1H-benzo[d]imidazol-6-yl)-9-cyclohexyl-8-oxo-8,9-dihydro-7H-purine-6-carboxamide], the melting point was 280 °C (dec.).

Compound `COc1ccccc1-n1c(=O)[nH]c2c(C(N)=O)nc(-c3ccc4nc[nH]c4c3)nc21` [Compound 91, 2-(1H-Benzo[d]imidazol-6-yl)-9-(2-methoxyphenyl)-8-oxo-8,9-dihydro-7H-purine-6-carboxamide] returned a melting point of 306 °C.

As for `CC(C)c1ccccc1-n1c(=O)[nH]c2c(C(N)=O)nc(-c3ccc(-c4nc[nH]n4)cc3)nc21` [Compound 121, 2-(4-(1H-1,2,4-Triazol-3-yl)phenyl)-9-(2-isopropylphenyl)-8-oxo-8,9-dihydro-7H-purine-6-carboxamide], the melting point was determined as 368 °C.

The compound `COc1ccccc1-n1c(=O)[nH]c2c(C(N)=O)nc(Nc3ccc(Cn4ccnc4)cc3)nc21` [Compound 111, 2-(4-((1H-Imidazol-1-yl)methyl)phenylamino)-9-(2-methoxyphenyl)-8-oxo-8,9-dihydro-7H-purine-6-carboxamide] registered a melting point of 165 to 170 °C.

Compound `COc1ccc(-n2c(=O)[nH]c3c(C(N)=O)nc(-c4cccc(O)c4)nc32)c(C)c1` [Compound 57, 2-(3-Hydroxyphenyl)-9-(4-methoxy-2-methylphenyl)-8-oxo-8,9-dihydro-7H-purine-6-carboxamide] yielded a melting point of 355 to 357 °C.

`COc1ccccc1-n1c(=O)[nH]c2c(C(N)=O)nc(-c3ccc(C(N)=O)cc3)nc21` [Compound 65, 2-(4-Carbamoylphenyl)-9-(2-methoxyphenyl)-8-oxo-8,9-dihydro-7H-purine-6-carboxamide] returned a melting point greater than 350 °C.

The compound `NC(=O)c1nc(-c2cccc(O)c2)nc2c1[nH]c(=O)n2[C@H]1CC[C@H](O)CC1` [Compound 49, 9-(trans-4-Hydroxycyclohexyl)-2-(3-hydroxyphenyl)-8-oxo-8,9-dihydro-7H-purine-6-carboxamide] showed a melting point of 373 to 375 °C.

Compound `NC(=O)c1nc(-c2cccc(O)c2)nc2c1[nH]c(=O)n2C1CCc2ccccc21` (stereo not drawn) [Compound 141, 9-(2,3-Dihydro-1H-inden-1-yl)-2-(3-hydroxyphenyl)-8-oxo-8,9-dihydro-7H-purine-6-carboxamide] returned a melting point of 341 to 343 °C.

Turning to `COc1ccccc1-n1c(=O)[nH]c2c(C(N)=O)nc(Nc3ccccc3CO)nc21` [Compound 124, 2-(2-(Hydroxymethyl)phenylamino)-9-(2-methoxyphenyl)-8-oxo-8,9-dihydro-7H-purine-6-carboxamide], the melting point is 159 to 162 °C.

For the compound `NC(=O)c1nc(-c2cccc(O)c2)nc2c1[nH]c(=O)n2-c1ccccc1C1CCCC1` [Compound 153, 9-(2-Cyclopentylphenyl)-2-(3-hydroxyphenyl)-8-oxo-8,9-dihydro-7H-purine-6-carboxamide], the melting point was greater than 260 °C.

`COc1ccccc1-n1c(=O)[nH]c2c(C(N)=O)nc(-c3cccc(C(=O)O)c3)nc21` [Compound 62, 3-(6-Carbamoyl-9-(2-methoxyphenyl)-8-oxo-8,9-dihydro-7H-purin-2-yl)benzoic acid] showed a melting point of 348 to 350 °C.

In turn, `NC(=O)c1nc(-c2cccnc2)nc2c1[nH]c(=O)n2[C@H]1CC[C@H](O)CC1` [Compound 48, 9-(trans-4-Hydroxycyclohexyl)-8-oxo-2-(pyridin-3-yl)-8,9-dihydro-7H-purine-6-carboxamide] displayed a melting point of 331 to 333 °C.

On to `CO[C@H]1CC[C@H](n2c(=O)[nH]c3c(C(N)=O)nc(-c4cccc(O)c4)nc32)CC1` [Compound 143, 9-(trans-4-Methoxycyclohexyl)-2-(3-hydroxyphenyl)-8-oxo-8,9-dihydro-7H-purine-6-carboxamide], for which the melting point was 355 to 357 °C.

Take `CC(C)c1ccccc1-n1c(=O)[nH]c2c(C(N)=O)nc(-c3ccc4nc[nH]c4c3)nc21` [Compound 127, 2-(1H-Benzo[d]imidazol-6-yl)-9-(2-isopropylphenyl)-8-oxo-8,9-dihydro-7H-purine-6-carboxamide]: the melting point was 275 °C (dec.).

With `NC(=O)c1nc(-c2ccc(O)nc2)nc2c1[nH]c(=O)n2-c1ccccc1C(F)(F)F` [Compound 100, 2-(6-Hydroxypyridin-3-yl)-8-oxo-9-(2-(trifluoromethyl)phenyl)-8,9-dihydro-7H-purine-6-carboxamide], the melting point is 348 to 352 °C (dec.).

As for `NC(=O)c1nc(-c2cccc(O)c2)nc2c1[nH]c(=O)n2-c1cccc2c1CCCC2` [Compound 145, 2-(3-Hydroxyphenyl)-8-oxo-9-(5,6,7,8-tetrahydronaphthalen-1-yl)-8,9-dihydro-7H-purine-6-carboxamide], the melting point is greater than 250 °C.

For the compound `NC(=O)c1nc(-c2cccc(O)c2)nc2c1[nH]c(=O)n2-c1ccccc1C1CCCCC1` [Compound 132, 9-(2-Cyclohexylphenyl)-2-(3-hydroxyphenyl)-8-oxo-8,9-dihydro-7H-purine-6-carboxamide], the melting point is greater than 270 °C.

`COc1ccccc1-n1c(=O)[nH]c2c(C(N)=O)nc(-c3ccc4nc(C(F)(F)F)[nH]c4c3)nc21` [Compound 117, 9-(2-Methoxyphenyl)-8-oxo-2-(2-(trifluoromethyl)-1H-benzo[d]imidazol-6-yl)-8,9-dihydro-7H-purine-6-carboxamide] displayed a melting point of 220 to 222 °C.

`COc1ccccc1-n1c(=O)[nH]c2c(C(N)=O)nc(Nc3ccc(O)cc3)nc21` [Compound 46, 2-(4-Hydroxyphenylamino)-9-(2-methoxyphenyl)-8-oxo-8,9-dihydro-7H-purine-6-carboxamide] gave a melting point of 223 to 224 °C.

The compound `CC(C)Cn1c(=O)[nH]c2c(C(N)=O)nc(-c3cccc(O)c3)nc21` [Compound 142, 2-(3-Hydroxyphenyl)-9-isobutyl-8-oxo-8,9-dihydro-7H-purine-6-carboxamide] registered a melting point of 374 to 376 °C.
